This is an account of results in publication PMC6115404 (2018).

Assay [1] deals with Tel26 (for FRET) (DNA, G4) AAAGGGTTAGGGTTAGGGTTAGGGAA
Briefly: FRET melting. The following applies: K+ (60 mM potassium cacodylate); pH 7.4; 400 nM DNA, 1.0 equivalent compound; second Tm (ΔTm 41.5, dimeric complex) at 2-3 equivalents.

Assay [2] relates to F10T (for FRET), double-stranded DNA (DNA, hairpin, hexaethylene glycol (HEG) linker between nucleotides 10 and 11) TATAGCTATATATAGCTATA
In words: FRET melting. The following applies: K+ (60 mM potassium cacodylate); pH 7.4; 400 nM DNA; compound concentration not in text.

Assay [3] deals with wtTel26 (DNA, G4) TTAGGGTTAGGGTTAGGGTTAGGGTT
Briefly: 1H NMR titration. The following applies: K+ (25 mM K-phosphate, 70 mM KCl); no well-defined complex at higher equivalents.

In assay [4] the test system is Tel26 (DNA, G4) AAAGGGTTAGGGTTAGGGTTAGGGAA
In words: NMR solution structure. The following applies: K+ (25 mM K-phosphate, 70 mM KCl); pH 7.0, 25 °C; bound at 5'-end, slow exchange.

`NCCNCCN.NCCNCCN.NCCNCCN.[Pt+2].[Pt+2].[Pt+2].c1cc(-c2ccc(N(c3ccc(-c4ccncc4)cc3)c3ccc(-c4ccncc4)cc3)cc2)ccn1`: the ΔTm amounted to 8.4 °C in assay [1] and 2.5 °C in assay [2]. The binding result in assay [3] and in assay [4] was “yes” in each case.

For orientation: ΔTm means the shift of the melting midpoint relative to a reference.
